According to PubChem BioAssay AID493102 (Broad Institute, 2011):

Each compound was assayed on SK-MEL-5 TRPM1-promoter luciferase reporter, 24 h (assay: TRPM1 promoter luciferase signal decrease, dose response, MITF inhibitor project, cell-based, SK-MEL-5, cherry-picked, set 4 (AID 493102);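 also: actives lower the luciferase signal so the potency reflects inhibition of reporter expression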).
With `CC(C)=NOc1cc(NC(=O)CCl)cc([N+](=O)[O-])c1` the AC50 was 6.18 µM.
`O=C1NC(=O)C(=Cc2ccc(-c3ccc(Cl)cc3)o2)C(=O)N1` was tested, and the AC50 was 9.2 µM.
With `CC(=O)NC1=C(N(C)C2CCS(=O)(=O)C2)C(=O)c2ccccc2C1=O` (stereo not drawn) the AC50 was 21.2 µM.
`COc1ccc(C(=O)/C=C/C(=O)N(CC(=O)NC2CCCCC2)Cc2cccs2)c(O)c1` was tested, and the AC50 was 5.53 µM.
`COc1cc(NC(=O)c2ccc([N+](=O)[O-])o2)ccc1NC(=O)c1cccs1` gave an AC50 of 8.46 µM.
In the case of `O=C(NC1=C(Nc2ccc(Cl)cc2)C(=O)c2ccccc2C1=O)c1ccccc1`, the AC50 is reported as 0.93 µM.
Compound `O=C1C=CC(=C(c2ccc(O)cc2)c2ccc(O)cc2)C=C1` has an AC50 of 9.92 µM.
For `C=CCOc1ccc(/C=C2\SC(=S)N(CCC(=O)O)C2=O)cc1`, the AC50 was 0.337 µM.
For `O=C(Nc1ccc(OC(=O)N2CCCCC2)cc1)N1CCOCC1`, the AC50 was 27.4 µM.
`CC1=NOC(=O)/C1=C\c1ccc(-c2cccc(Cl)c2)o1` gave an AC50 of 5.36 µM.
Compound `Cc1scc(C(=O)N/N=C/c2ccc([N+](=O)[O-])o2)c1C` has an AC50 of 2.19 µM.
With `CCn1c(/C=C/N(C)c2ccccc2)[n+](CC)c2ccc(Cl)cc21` the AC50 was 6.86 µM.
In the case of `COc1ccccc1N(C(=O)CCl)c1cn(C(C)=O)c2ccccc12`, the AC50 is reported as 8.82 µM.
`CN1CCC(N(C)C(=O)/C=C/c2cn(-c3ccccc3)nc2-c2cccs2)CC1` showed an AC50 of 9.82 µM.
`CCOc1ccc(-n2c(-c3ccc(Br)cc3)c[n+]3c2CCCCC3)cc1` showed an AC50 of 3.87 µM.
Compound `O=C(NC(=S)NCc1ccccc1)c1ccccc1` has an AC50 of 22.1 µM.
Work on `O=C1NC(=O)N(Cc2ccccc2)C(=O)/C1=C/C=C/c1ccco1` yielded an AC50 of 4.85 µM.
Compound `CCOC(=O)c1ccc(NC(=O)c2ccc(C)c(S(=O)(=O)N3CCOCC3)c2)cc1` has an AC50 of 5.36 µM.
With `Cn1cccc1C(=O)NC(=O)COC(=O)c1ccc(S(C)(=O)=O)c([N+](=O)[O-])c1` the AC50 was 9.23 µM.
`CN1CCN(c2ccccc2NC(=O)c2ccc([N+](=O)[O-])o2)CC1` was tested, and the AC50 was 4.95 µM.
With `COc1ccc2nc(N3CCN(C(=O)c4ccc([N+](=O)[O-])o4)CC3)sc2c1` the AC50 was 5.81 µM.
For `O=C(Nc1ccc2nc3n(c(=O)c2c1)CCCCC3)c1cc([N+](=O)[O-])ccc1F`, the AC50 was 10.7 µM.
For `CN1CCN(C2=C(NS(=O)(=O)c3ccccc3)C(=O)c3ccccc3C2=O)CC1`, the AC50 was 6.9 µM.
Compound `COc1cccc(/C=C2/Sc3ccc(C(=O)NCCN4CCCC4)cc3NC2=O)c1` has an AC50 of 17.9 µM.
With `Cc1ccc(N2C(=O)NC(=O)/C(=C/C=C/c3ccco3)C2=O)cc1` the AC50 was 5.97 µM.
`O=C(/C=C/c1ccc(Cl)cc1)c1ccc([N+](=O)[O-])o1` gave an AC50 of 5.32 µM.
With `COc1ccc(CCn2c(=S)[nH]c3cc(C(=O)NCc4ccco4)ccc3c2=O)cc1OC` the AC50 was 17.7 µM.
`Cc1cc(C(=O)N/N=C/c2ccc([N+](=O)[O-])o2)c(C)o1` showed an AC50 of 4.79 µM.
Compound `CC(=O)c1ccc(S(=O)(=O)N2CCN(C(=O)/C=C/c3ccc4ccccc4n3)CC2)cc1` has an AC50 of 12 µM.
In the case of `CC(C)(C)c1ccc(-c2noc(CCC(=O)NCC3CCCO3)n2)cc1` (stereo not drawn), the AC50 is reported as 0.275 µM.
Compound `CC1=NC(=O)C(N=Nc2cccc(C(=O)O)c2)N1c1ccccc1` (stereo not drawn) has an AC50 of 8.62 µM.
For `Cc1cc(N2CCOCC2)ccc1/C=C\[N+](=O)[O-]`, the AC50 was 22.5 µM.
In the case of `COc1ccc(COC(=O)c2cc([N+](=O)[O-])ccc2N2CCOCC2)cc1F`, the AC50 is reported as 0.023 µM.
`O=C(O)c1cc(N/N=C/C(Cl)=C/c2ccccc2)ccc1Cl` was tested, and the AC50 was 10.4 µM.
`COc1ccc2nc(C)cc(NCc3cccc(C(F)(F)F)c3)c2c1` was tested, and the AC50 was 18.2 µM.
With `COc1ccc(Oc2cc(NC(=O)c3nn(C)cc3[N+](=O)[O-])cc([N+](=O)[O-])c2)cc1` the AC50 was 8.94 µM.
For `O=C(NC1CCCC(C(F)(F)F)C1)c1ccc([N+](=O)[O-])o1` (stereo not drawn), the AC50 was 11.2 µM.
`O=C1CN(C(=O)Cn2ncc(Cl)c(Cl)c2=O)c2ccccc2N1` gave an AC50 of 8.67 µM.
For `COC(=O)c1ccc2c(c1O)C(=O)c1ccccc1C2=O`, the AC50 was 1.61 µM.
In the case of `CS(=O)(=O)c1ncc(Cl)c(C(=O)Nc2ccc(N3CCOCC3)cc2)n1`, the AC50 is reported as 22.8 µM.
In the case of `N#CCc1ccc(NC(=O)/C=C/c2ccc([N+](=O)[O-])o2)cc1`, the AC50 is reported as 4.97 µM.
Compound `Cc1ccc(NCC(=O)N/N=C\c2ccc([N+](=O)[O-])o2)cc1` has an AC50 of 19.1 µM.
In the case of `CCOC(=O)Cn1c(=NC(=O)c2ccc([N+](=O)[O-])s2)sc2ccccc21`, the AC50 is reported as 3.5 µM.
